The text below walks through data of article PMC3814989, “Development of a Fluorescence Polarization Based High-Throughput Assay to Identify Casitas B-Lineage Lymphoma RING Domain Regulators” (PLoS ONE, 2013).

The assay deals with T1, c-Cbl (RING) protein (Homo sapiens, UniProt P22681).
T1 construct: c-Cbl (RING) protein including the linker and RING domain (codon 358–457) was tagged with glutathione S-transferase (GST); GST; made in house
T1 sequence (P22681 358-457): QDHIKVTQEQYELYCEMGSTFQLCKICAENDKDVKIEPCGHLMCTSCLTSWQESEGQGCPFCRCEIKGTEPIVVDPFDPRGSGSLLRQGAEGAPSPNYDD
Nature of the assay: Competitive FP assay/screen: displacement of probe 1 from c-Cbl (RING) protein. It is filed as binding. Particulars: for Outcome in detergent-present screen: detergent-present screen (0.01% Triton X-100); for Hit verification outcome: hits from detergent-free screen, more extensive competitive binding assays. Here is the method: Assays were carried out in detergent-free buffer system (PBS, pH = 7.4) or detergent-present buffer system (0.01% Triton X-100 in PBS, pH = 7.4). All FP measurements were made on 384-well, low-volume, black, v-bottom polystyrene microplates (Corning, Shanghai, China) using the ZS-2 plate reader. The binding affinities of fluorescein-labeled peptides/regulators binding to c-Cbl (RING) protein were verified by titrating an increasing concentration of protein into a constant concentration of labeled peptides. […] The total fluorescence (TF) values were also measured. The change in polarization was graphed as a function of the log of the protein concentration, and the dissociation constant (Kd) and the change in mP (ΔmP) were obtained from the resulting sigmoidal curve. The concentrations of fluorescein-labeled peptide and proteins were optimized.
Unlabeled short peptide was titrated against the FITC-labeled peptide (100 nmol/L) and protein (3 µmol/L) mixture. Plates were incubated at room temperature for up to 3 hours or 30 min at different temperatures.
Master mixtures containing fluorescein-labeled probe and Cbl (RING) protein Cbl (RING) protein, 3 µmol/L and probe 1 at 100 nmol/L) in a reaction volume of 19 µl were prepared and loaded to plates. The library compounds (10 µmol/L – 0.078 µmol/L, half dilutions) were prepared separately and transferred into the assay plates. The first and last columns of each plate were used as positive and negative control wells. Wells containing the drug only were used as controls to detect auto-fluorescence of the compounds in the total fluorescence assay. After subtraction of the background signal, data was processed and the IC50 values were determined by non-linear least square fitting (four parameters) using SigmaPlot 11.0.
Hits were validated using the primary screening assay conditions in triplicate.

[1] abbreviates: primary screen, detergent-free system, 10 to 0.078 µmol/L, 5% DMSO, read-out: IC50 Primary screen DF.
The mark [2] stands for this setting: primary screen, detergent-present system (0.01% Triton X-100), 10 to 0.078 µmol/L, 5% DMSO, read-out: IC50 Primary screen DP.
Where [3] appears, read: validated in triplicate, detergent-free system, read-out: IC50 Validated DF.
Setting [4] is: validated in triplicate, detergent-present system (0.01% Triton X-100), NR: no dose response, read-out: IC50 Validated DP.

Read-outs that look alike come from different tables or passages of the source. Residues, ends and D or L forms follow the SMILES beside them.

The IC50 is the point on the concentration scale where inhibition reaches its midpoint. For the compound `C[C@]1(O)C[C@@H](O)[C@@H]2C=CO[C@@H](O[C@@H]3O[C@H](CO)[C@@H](O)[C@H](O)[C@H]3O)[C@@H]21` [Leonuride], the IC50 by setting is: (primary screen, detergent-free system, 10 to 0.078 µmol/L, 5% DMSO, listed as leonuride, read-out: IC50 Primary screen DF) less than 5 µM; under setting [1], 3.5 µM; under setting [2], 3.8 µM; under setting [3], 4.6 ± 0.8 µM; under setting [4], 4.5 ± 1.1 µM.

For the compound `CO[C@]1(CC[C@@H](C)CO[C@@H]2O[C@H](CO)[C@@H](O)[C@H](O)[C@H]2O)O[C@H]2C[C@H]3[C@@H]4CC=C5C[C@@H](O[C@@H]6O[C@H](CO)[C@@H](O[C@@H]7O[C@@H](C)[C@H](O)[C@@H](O)[C@H]7O)[C@H](O)[C@H]6O[C@@H]6O[C@@H](C)[C@H](O)[C@@H](O)[C@H]6O)CC[C@]5(C)[C@H]4CC[C@]3(C)[C@H]2[C@@H]1C` [Methylprotodioscin], the IC50 amounted to 4.8 µM under setting [1], 4 µM under setting [2], 4.2 ± 0.5 µM under setting [3] and 4 ± 0.8 µM under setting [4].

`CC(=O)N1CCC[C@H]1C(=O)N[C@@H](Cc1ccccc1)C(=O)N[C@@H](CCCCN)C(=O)N1CCC[C@H]1C(=O)N1CCC[C@H]1C(N)=O` [Peptide 1, Ac-PFKPP-NH2] (Ac-PFKPP-NH2): the IC50 runs as follows: (detergent-free system, c-Cbl (RING) protein 3 µmol/L + 100 nmol/L probe 1, read-out: IC50, unlabeled peptide competing with probe 1) 1.05 ± 0.09 µM; (detergent-present system (0.01% Triton X-100), c-Cbl (RING) protein 3 µmol/L + 100 nmol/L probe 1, read-out: IC50, unlabeled peptide competing with probe 1) 1.06 ± 0.09 µM.

Take `CC(=O)N1CCC[C@H]1C(=O)N[C@@H](C)C(=O)N[C@@H](CCCCN)C(=O)N1CCC[C@H]1C(=O)N1CCC[C@H]1C(N)=O` [Peptide 2, Ac-PAKPP-NH2] (Ac-PAKPP-NH2): where the note is “detergent-free system, c-Cbl (RING) protein 3 µmol/L + 100 nmol/L probe 1”, the “Effect of unlabeled peptide on FP values” is “does not alter the FP values”.

As to `O=c1c(O)c(-c2ccc(O)c(O)c2)oc2cc(O)cc(O)c12` [Quercetin], the “Outcome in detergent-present screen” value is given as “negative” and the Hit verification outcome is reported as “false positive hits”.

Take Tehmaglutin: the “Outcome in detergent-present screen” value was “negative” and the Hit verification outcome is reported as “false positive hits”. For the setting “primary screen, detergent-free system, 10 to 0.078 µmol/L, 5% DMSO, listed as tehmaglutin, read-out: IC50 Primary screen DF”, the concentration for half-maximal inhibition (IC50) was less than 5 µM. Under setting [1], the IC50 was found to be 5 µM. For the same compound, under setting [2], the IC50 is more than 10 µM. The IC50 under setting [3] is 4.7 ± 0.4 µM. Also, under setting [4], the IC50 is more than 10 µM.
